{"source": "patent US20110028391A1", "about": "“Use of GLP-1 Peptides” (Novo Nordisk A/S, priority 1996, published 2011)", "key": {"[1]": {"test_system": "Mice", "experiment": "Appetite suppression in mice: Complan formula milk consumption after subcutaneous injection (Example 4)", "format": "in vivo", "details": "30 min after injection, p<0.001"}, "[2]": {"test_system": "Mice", "experiment": "Appetite suppression in mice: 20% sucrose consumption, tested immediately after ip injection (Example 2)", "format": "in vivo", "details": "85 micrograms (equivalent to 3.4 mg/kg) in sterile saline, 10 minute test immediately after injection, versus vehicle control, p-value 0.002", "protocol": "Mice were deprived of their normal food for two days and given free access to a 20% sucrose solution on the first day of food deprivation. After the two day food deprivation period, the mice were injected intraperitoneally with 0.5 ml of a solution containing the test substance. Immediately after injection, individual mice were placed in one of eight 15 cm square test boxes with a stainless steel grid floor and a glass drinking tube which projected into the box. […] Consumption of the sucrose solution was measured over a 10 minute period by electronically recording the total amount of contact with the sucrose solution during the test session. The degree of appetite suppression produced by a given test substance was determined by statistical comparison of the mean duration of sucrose consumption by control (vehicle treated) mice with that of mice treated with a test substance. The degree of appetite suppression in a treated group of mice was expressed as percent difference between the test and control group's response duration means. […]"}, "[3]": {"test_system": "rats", "details": "cited from earlier work"}, "[4]": {"test_system": "Healthy human volunteers", "experiment": "Double-blind crossover trial of iv infusion: food intake, satiety, hunger, fullness and appetite in normal human subjects", "format": "in vivo", "details": "iv infusion 50 pmol/(kg·h)", "text": "Healthy human volunteers (20 subjects) were in a double-blind crossover trial given an iv infusion of 50 pmol/(kg·h) of GLP-1(7-36)amide or saline on separate, but otherwise identical experimental days. The infusion was started at 9.00 and lasted until 15.00. At 9.45 the subjects received a fixed amount of breakfast and at 14.15 they had lunch of an identical composition but ad libitum. The subjects rated their feeling of satiety, hunger, fullness and appetite on a visual analogue scale every half hour."}, "[5]": {"details": "9.00 to 15.00, 20 subjects, rated every half hour, p=0.007"}}, "note": "Read-outs that look alike come from different tables or passages of the source. No end group written: not given here."}
{"substance": "GLP-1(7-36)amide", "values": [{"measurement": "Suppression of feeding (Complan consumption)", "setting": "[1]; 1 mg/kg", "value": 45, "unit": "%"}, {"measurement": "Maximum effect, suppression of feeding (Complan consumption)", "setting": "[1]; 20 mg/kg (highest dose tested)", "value": 60, "unit": "%"}, {"measurement": "Suppression of sucrose consumption", "setting": "[2]", "value": 60, "unit": "%"}]}
{"substance": "GLP-1(1-36)amide (HDEFERHAEGTFTSDVSSYLEGQAAKEFIAWLVKGR-NH2; UniProt P01275 92-127, looked up, fragment) [GLP-1 fragment 1-36, C-terminal amide]", "values": [{"measurement": "Effect on food intake", "setting": "[3]; Tang-Christensen et al. 1996, route not stated", "value": "no effect"}]}
{"substance": "GLP-1: proglucagon fragment 72-108 per b6; as named in the cited rat studies (b7); in b63 it is shorthand for GLP-1(7-36)amide", "values": [{"measurement": "Effect on food intake", "setting": "[3]; administered intracerebroventricularly, Tang-Christensen et al. 1996", "value": "profound effect"}, {"measurement": "Effect on food intake", "setting": "[3]; administered intracerebroventricularly, Turton et al. 1996", "value": "profound effect"}, {"measurement": "Effect on food intake", "setting": "[3]; peripheral administration, Turton et al. 1996", "value": "inactive"}, {"measurement": "Effect on food intake", "setting": "[3]; peripherally administered, Tang-Christensen et al. 1996", "value": "no significant effect"}, {"measurement": "Satiety (visual analogue scale) versus saline", "setting": "[4]; 9.00 to 15.00, 20 subjects, rated every half hour, p=0.006", "value": "GLP-1>Saline"}, {"measurement": "Appetite (visual analogue scale) versus saline", "setting": "[4]; [5]", "value": "GLP-1<Saline"}, {"measurement": "Hunger (visual analogue scale) versus saline", "setting": "[4]; [5]", "value": "GLP-1<Saline"}, {"measurement": "Fullness (visual analogue scale) versus saline", "setting": "[4]; 9.00 to 15.00, 20 subjects, rated every half hour, p=0.010", "value": "GLP-1>Saline"}, {"measurement": "Energy intake", "setting": "[4]; ad libitum lunch, saline 4.3 MJ, p-value 0.009", "value": 3.9, "unit": "mJ"}]}
